Molecular target: T1, Thromboxane A2 receptor (Rattus norvegicus) (UniProt P34978)
T1 sequence (whole entry): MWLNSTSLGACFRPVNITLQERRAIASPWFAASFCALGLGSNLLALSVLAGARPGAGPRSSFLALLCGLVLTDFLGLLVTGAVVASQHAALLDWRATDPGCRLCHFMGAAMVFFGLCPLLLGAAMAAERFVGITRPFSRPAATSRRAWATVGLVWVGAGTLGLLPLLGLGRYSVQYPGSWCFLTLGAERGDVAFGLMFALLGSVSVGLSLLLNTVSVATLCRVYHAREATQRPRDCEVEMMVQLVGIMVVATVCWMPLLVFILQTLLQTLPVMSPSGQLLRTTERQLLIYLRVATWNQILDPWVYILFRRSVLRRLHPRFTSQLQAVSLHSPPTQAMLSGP
Assay: Compound was tested for in vivo inhibition of thromboxane A2 receptor inhibition 1 hr after administration of 10 mg/kg orally to rat
Format: organism-based
Parameters: dose 10 mg/kg
Settings: at 10 mg/kg; call rule not given here

`O=C(O)CC1CCCc2c1n(Cc1cccc(OCCCC#Cc3cccnc3)c1)c1ccc(F)cc21` (stereo not drawn) gave an inhibition of 86%.

Molecular target: T1, Thromboxane A2 receptor (Rattus norvegicus)
Assay: Compound was tested for in vivo inhibition of thromboxane-A2 receptor inhibition 3 hr after administration of 10 mg/kg orally to rat
Format: organism-based
Parameters: dose 10 mg/kg
Settings: at 10 mg/kg

Work on `O=C(O)CC1CCCc2c1n(Cc1cccc(OCCCC#Cc3cccnc3)c1)c1ccc(F)cc21` (stereo not drawn) yielded an inhibition of 77%.

Molecular target: T1, Thromboxane A2 receptor (Rattus norvegicus)
Assay: Compound was tested for in vivo inhibition of thromboxane-A2 receptor inhibition 5 hr after administration of 10 mg/kg orally to rat
Format: organism-based
Parameters: dose 10 mg/kg
Settings: at 10 mg/kg

For `O=C(O)CC1CCCc2c1n(Cc1cccc(OCCCC#Cc3cccnc3)c1)c1ccc(F)cc21` (stereo not drawn), the inhibition was 71%.

Molecular target: T2, Thromboxane A2 receptor (Homo sapiens, UniProt P21731)
T2 sequence (P21731 whole entry): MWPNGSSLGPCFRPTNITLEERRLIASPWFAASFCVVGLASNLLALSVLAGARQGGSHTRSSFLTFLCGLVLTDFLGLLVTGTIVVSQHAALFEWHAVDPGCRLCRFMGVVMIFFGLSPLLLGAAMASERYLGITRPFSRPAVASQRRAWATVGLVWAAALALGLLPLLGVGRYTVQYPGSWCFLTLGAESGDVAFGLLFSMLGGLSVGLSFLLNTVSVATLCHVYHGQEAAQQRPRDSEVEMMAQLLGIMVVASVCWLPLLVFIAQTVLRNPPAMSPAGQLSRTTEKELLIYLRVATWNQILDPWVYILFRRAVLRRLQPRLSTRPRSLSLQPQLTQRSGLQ
Assay: Tested for thromboxane antagonist potency (pA2) against […] induced platelet aggregation using human platelet rich plasma
Format: functional, cell-free
Settings: read-out: pA2 (converted)

First: O=C(O)CC1CCCc2c1n(Cc1ccc(Cl)cc1)c1ccc(F)cc21 (stereo not drawn)
Second: O=C(O)CC1CCCc2c1n(Cc1cccnc1)c1ccc(F)cc21 (stereo not drawn)
The Kb of the first is 40-fold lower: 79.4 nM for the first, 3160 nM for the second.

Going from `O=C(O)CC1CCCc2c1n(Cc1cccc(OCCCCC#Cc3cccnc3)c1)c1ccc(F)cc21` (stereo not drawn) to `O=C(O)CC1CCCc2c1n(Cc1cccc(OCCCC#Cc3cccnc3)c1)c1ccc(F)cc21` (stereo not drawn), the Kb falls from 2510 nM to 1000 nM (2.5-fold).

`O=C(O)CC1CCCc2c1n(Cc1ccc(OCCCCC#Cc3cccnc3)cc1)c1ccc(F)cc21` (stereo not drawn) and `O=C(O)CC1CCCc2c1n(Cc1ccc(OCCCC#Cc3cccnc3)cc1)c1ccc(F)cc21` (stereo not drawn) are within 1.5-fold of each other in Kb: 200 nM for the first, 158 nM for the second.

First: O=C(O)CC1CCCc2c1n(Cc1cccc(OCCCCc3cccnc3)c1)c1ccc(F)cc21 (stereo not drawn)
Second: O=C(O)CC1CCCc2c1n(Cc1cccc(OCCCCCc3cccnc3)c1)c1ccc(F)cc21 (stereo not drawn)
The Kb of the first is 6.3-fold lower: 501 nM for the first, 3160 nM for the second.

Compared with `O=C(O)CC1CCCc2c1n(Cc1cccc(OCCC/C=C\c3cccnc3)c1)c1ccc(F)cc21` (stereo not drawn), `O=C(O)CC1CCCc2c1n(Cc1cccc(CCCCCc3cccnc3)c1)c1ccc(F)cc21` (stereo not drawn) is 6.3-fold higher in Kb: 631 nM for the first, 3980 nM for the second.

Molecular target: T3, Thromboxane-A synthase (Homo sapiens, UniProt P24557)
T3 sequence (P24557 whole entry): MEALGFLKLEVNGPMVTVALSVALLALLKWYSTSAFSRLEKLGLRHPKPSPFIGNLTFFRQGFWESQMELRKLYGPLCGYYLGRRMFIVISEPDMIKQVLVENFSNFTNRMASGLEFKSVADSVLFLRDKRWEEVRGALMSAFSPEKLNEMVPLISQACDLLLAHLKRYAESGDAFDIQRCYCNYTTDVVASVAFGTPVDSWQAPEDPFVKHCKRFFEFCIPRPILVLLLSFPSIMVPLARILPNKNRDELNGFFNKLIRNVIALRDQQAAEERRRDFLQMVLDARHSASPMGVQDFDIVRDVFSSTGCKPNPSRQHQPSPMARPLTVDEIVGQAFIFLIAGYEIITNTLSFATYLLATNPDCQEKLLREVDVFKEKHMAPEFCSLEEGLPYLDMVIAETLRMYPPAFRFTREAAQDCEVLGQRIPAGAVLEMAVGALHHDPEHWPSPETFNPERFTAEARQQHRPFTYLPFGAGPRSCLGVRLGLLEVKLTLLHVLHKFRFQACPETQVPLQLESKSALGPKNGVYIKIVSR
Assay: Human microsomal Thromboxane synthase inhibition was determined by inhibiting TXB2 formation from [14C]- labelled arachidonic acid; Not active
Settings: not given

For `O=C(O)CC1CCCc2c1n(Cc1ccc(Cl)cc1)c1ccc(F)cc21` (stereo not drawn), the IC50 was “Not Active”.
With `O=C(O)CC1CCCc2c1n(Cc1cccnc1)c1ccc(F)cc21` (stereo not drawn) the IC50 was “Not Active”.

Molecular target: T3, Thromboxane-A synthase
Assay: Human microsomal Thromboxane synthase inhibition was determined by inhibiting TXB2 formation from [14C]- labelled arachidonic acid
Settings: not given

`O=C(O)CC1CCCc2c1n(Cc1cccc(OCCCCC#Cc3cccnc3)c1)c1ccc(F)cc21` (stereo not drawn) and `O=C(O)CC1CCCc2c1n(Cc1cccc(OCCCC#Cc3cccnc3)c1)c1ccc(F)cc21` (stereo not drawn) are within 1.5-fold of each other in IC50: 40 nM for the first, 50 nM for the second.

Going from `O=C(O)CC1CCCc2c1n(Cc1ccc(OCCCCC#Cc3cccnc3)cc1)c1ccc(F)cc21` (stereo not drawn) to `O=C(O)CC1CCCc2c1n(Cc1ccc(OCCCC#Cc3cccnc3)cc1)c1ccc(F)cc21` (stereo not drawn), the IC50 rises from 400 nM to 600 nM (1.5-fold).

Compared with `O=C(O)CC1CCCc2c1n(Cc1cccc(OCCCCc3cccnc3)c1)c1ccc(F)cc21` (stereo not drawn), `O=C(O)CC1CCCc2c1n(Cc1cccc(OCCCCCc3cccnc3)c1)c1ccc(F)cc21` (stereo not drawn) is 3-fold higher in IC50: 100 nM for the first, 300 nM for the second.

Compared with `O=C(O)CC1CCCc2c1n(Cc1cccc(OCCC/C=C\c3cccnc3)c1)c1ccc(F)cc21` (stereo not drawn), `O=C(O)CC1CCCc2c1n(Cc1cccc(CCCCCc3cccnc3)c1)c1ccc(F)cc21` (stereo not drawn) is 2.5-fold higher in IC50: 200 nM for the first, 500 nM for the second. The first is the more potent here.

Source: ChEMBL document CHEMBL1126467, “Discovery of dual activity molecules with thromboxane antagonist and thromboxane synthase inhibitory activity” (Bioorg Med Chem Lett, 1992)
